The results in this text go back to patent US20230159527A1, “COMPOUNDS AS BCL-2 INHIBITORS” (Fochon Pharmaceuticals, Ltd., priority 2020, published 2023).

Each structure is given as a SMILES string.

For orientation: IC50 means the concentration that gives 50% inhibition.

One assay relates to Toledo cells. As to the kind of experiment: Cell proliferation assay, Toledo cells (MTS, 72 h). It is filed as cell-based. Conditions: Homo sapiens, Toledo cells, MTS, read-out: Toledo IC50. How it is done: MTS testing kit was purchased from Promega (Madison, Wis., USA). The RPMI-1640, Fetal bovine serum and Penicillin-Streptomycin were purchased from BI (Biological Industries, Beit Haemek, Israel). Dimethyl sulfoxide (DMSO) was purchased from Sigma (St. Louis, Mo., USA). Toledo (ATCC catalog #: CRL-2631) cells were cultured in RPMI-1640 supplemented with Penicillin-Streptomycin and 10% FBS.
To investigate whether a compound is able to inhibit the activity of BCL-2 in cells, a mechanism-based assay using Toledo lines was developed. In this assay, the inhibition of BCL-2 was reflected by the inhibition of cell proliferation of Toledo cells. Cells were plated into 96-well plates at the optimized cell density of 30000 cells/well. Plates were incubated at 37° C., with 5% CO2 for 4h. Compounds were serially diluted and added to the plates with the final concentrations of 10000, 3333.3, 1111.1, 370.4, 123.5, 41.2, 13.7, 4.6 and 1.5 nM. Plates were incubated at 37° C., with 5% CO2 for 72 h. 20 μl MTS was added into each well and the plates were incubated at 37° C., with 5% CO2 for exactly 2 h. The absorbance was measured by a microplate reader at 490 nm. IC50 was calculated using GraphPad Prism 5.0 software.
Regarding `CC(C)c1ccccc1[C@@H]1CCC[C@@H]1N1CC2(CCN(c3ccc(C(=O)NS(=O)(=O)c4ccc(NC[C@H]5CC[C@](C)(O)CC5)c([N+](=O)[O-])c4)c(Oc4cc5cc[nH]c5nc4OC4COC4)c3)CC2)C1` (single isomer, unassigned) [Example D-115, N-((4-((((1r,4r)-4-hydroxy-4-methylcyclohexyl)methyl)amino)-3-nitrophenyl)sulfonyl)-4-(2-((1S,2S or 1R,2R)-2-(2-isopropylphenyl)cyclopentyl)-2,7-diazaspiro[3.5]nonan-7-yl)-2-((6-(oxetan-3-yloxy)-1H-pyrrolo[2,3-b]pyridin-5-yl)oxy) benzamide], the IC50 was 1 nM. Still for that read-out and setting: then `CC(C)c1ccccc1[C@@H]1CCCN1C1CC2(CCN(c3ccc(C(=O)NS(=O)(=O)c4cc5c(c([N+](=O)[O-])c4)N[C@@H]([C@H]4CC[C@](C)(O)CC4)CO5)c(Oc4cc5cc[nH]c5nc4OC[C@@H](C)O)c3)CC2)C1` (single isomer, unassigned) [Example D-69, N-(((S)-3-((1r,4S)-4-hydroxy-4-methylcyclohexyl)-5-nitro-3,4-dihydro-2H-benzo[b][1,4]oxazin-7-yl)sulfonyl)-2-((6-((7)-2-hydroxypropoxy)-1H-pyrrolo[2,3-b]pyridin-5-yl)oxy)-4-(2-((R or S)-2-(2-isopropylphenyl)pyrrolidin-1-yl)-7-azaspiro[3.5]nonan-7-yl)benzamide], with 1 nM; and `CC(C)c1ccccc1[C@@H]1CCC[C@@H]1N1CC2(CCN(c3ccc(C(=O)NS(=O)(=O)c4cnc(NC[C@H]5CC[C@](C)(O)CC5)c([N+](=O)[O-])c4)c(Oc4cc5cc[nH]c5nc4Cl)c3)CC2)C1` (relative stereo) [Example A-159, 2-((6-chloro-1H-pyrrolo[2,3-b]pyridin-5-yl)oxy)-N-((6-((((1r,4r)-4-hydroxy-4-methylcyclohexyl)methyl)amino)-_ 5-nitropyridin-3-yl)sulfonyl)-4-(2-((1S,2S or 1R,2R)-2-(2-isopropylphenyl)cyclo-pentyl)-2,7-diazaspiro[3.5]nonan-7-yl) benzamide], with 1 nM. In the case of `CC(C)c1ccccc1[C@@H]1CCCN1C1CC2(CCN(c3ccc(C(=O)NS(=O)(=O)c4cc5c(c([N+](=O)[O-])c4)N[C@@H]([C@H]4CC[C@H](O)CC4)CO5)c(Oc4cnc5[nH]cc(F)c5c4)c3)CC2)C1` (single isomer, unassigned) [Example D-41, 2-((3-fluoro-1H-pyrrolo[2,3-b]pyridin-5-yl)oxy)-N-(((S)-3-((1r,4S)-4-hydroxycyclohexyl)-5-nitro-3,4-dihydro-2H-benzo[b][1,4]oxazin-7-yl)sulfonyl)-4-(2-((R or S)-2-(2-isopropylphenyl)pyrrolidin-1-yl)-7-azaspiro[3.5]nonan-7-yl)benzamide], the concentration for half-maximal inhibition (IC50) worked out at 1 nM. For `COCCNc1nc2[nH]ccc2cc1Oc1cc(N2CCC3(CC2)CC(N2CCC[C@H]2c2ccccc2C(C)C)C3)ccc1C(=O)NS(=O)(=O)c1cc2c(c([N+](=O)[O-])c1)N[C@@H]([C@H]1CC[C@](C)(O)CC1)CO2` (single isomer, unassigned) [Example D-56, N-(((S)-3-((1r,4S)-4-hydroxy-4-methylcyclohexyl)-5-nitro-3,4-dihydro-2H-benzo[b][1,4]oxazin-7-yl)sulfonyl)-4-(2-((R or S)-2-(2-isopropylphenyl)pyrrolidin-1-yl)-7-azaspiro[3.5]nonan-7-yl)-2-((6-((2-methoxyethyl)amino)-1H-pyrrolo[2,3-b]pyridin-5-yl)oxy)benzamide], the IC50 was 1 nM. Regarding `CC(C)c1ccccc1[C@@H]1CCCN1C1CC2(CCN(c3ccc(C(=O)NS(=O)(=O)c4cc5c(c([N+](=O)[O-])c4)N[C@@H]([C@H]4CC[C@](C)(O)CC4)CO5)c(Oc4cc5cc[nH]c5nc4OC[C@@H]4CCCN4)c3)CC2)C1` (single isomer, unassigned) [Example D-218, N-(((S)-3-((1r,4S)-4-hydroxy-4-methylcyclohexyl)-5-nitro-3,4-dihydro-2H-benzo[b][1,4]oxazin-7-yl)sulfonyl)-4-(2-((R or S)-2-(2-isopropylphenyl)pyrrolidin-1-yl)-7-azaspiro[3.5]nonan-7-yl)-2-((6-(((S)-pyrrolidin-2-yl)methoxy)-1H-pyrrolo[2,3-b]pyridin-5-yl)oxy)benzamide], the IC50 was found to be 1 nM. As to `COc1nc2[nH]ccc2cc1Oc1cc(N2CCC3(CC2)CN([C@H]2CCC[C@H]2c2ccccc2C(C)C)C3)ccc1C(=O)NS(=O)(=O)c1cnc(NC[C@H]2CC[C@](C)(O)CC2)c([N+](=O)[O-])c1` (single isomer, unassigned) [Example A-160, N-((6-(((1r,4r)-4-hydroxy-4-methyl-cyclohexyl)methyl)amino)-5-nitro-pyridin-3-yl)sulfonyl)-4-(2-((1S,2S or 1R,2R)-2-(2-isopropylphenyl)cyclo-pentyl)-2,7-diazaspiro[3.5]nonan-7-yl)-2-((6-methoxy-1H-pyrrolo[2,3-b]pyridin-5-yl)oxy)benzamide], the IC50 came out at 1 nM. Still for that read-out and setting: then `CC(C)c1ccccc1[C@@H]1CCCN1C1CC2(CCN(c3ccc(C(=O)NS(=O)(=O)c4cc5c(c([N+](=O)[O-])c4)N[C@@H](C4CCC(O)CC4)CO5)c(Oc4cnc5[nH]cc(F)c5c4)c3)CC2)C1` (single isomer, unassigned) [Example D-40, 2-((3-fluoro-1H-pyrrolo[2,3-b]pyridin-5-yl)oxy)-N-(((S)-3-((1s,4R)-4-hydroxycyclohexyl)-5-nitro-3,4-dihydro-2H-benzo[b][1,4]oxazin-7-yl)sulfonyl)-4-(2-((R or S)-2-(2-isopropylphenyl)pyrrolidin-1-yl)-7-azaspiro[3.5]nonan-7-yl)benzamide], with 1 nM; and `CC(C)Oc1nc2[nH]ccc2cc1Oc1cc(N2CCC3(CC2)CC(N2CCC[C@H]2c2ccccc2C(C)C)C3)ccc1C(=O)NS(=O)(=O)c1cc2c(c([N+](=O)[O-])c1)N[C@@H]([C@H]1CC[C@](C)(O)CC1)CO2` (single isomer, unassigned) [Example D-66, N-(((S)-3-((1r,4S)-4-hydroxy-4-methylcyclohexyl)-5-nitro-3,4-dihydro-2H-benzo[b][1,4]oxazin-7-yl)sulfonyl)-2-((6-isopropoxy-1H-pyrrolo[2,3-b]pyridin-5-yl)oxy)-4-(2-((R or S)-2-(2-isopropylphenyl)pyrrolidin-1-yl)-7-azaspiro[3.5]nonan-7-yl)benzamide], with 1 nM. Take `CC(C)c1ccccc1[C@@H]1CCCN1C1CC2(CCN(c3ccc(C(=O)NS(=O)(=O)c4cc5c(c([N+](=O)[O-])c4)N[C@@H]([C@H]4CC[C@](C)(O)CC4)CO5)c(Oc4cc5cc[nH]c5nc4OC[C@H](C)O)c3)CC2)C1` (single isomer, unassigned) [Example D-70, N-(((S)-3-((1r,4S)-4-hydroxy-4-methylcyclohexyl)-5-nitro-3,4-dihydro-2H-benzo[b][1,4]oxazin-7-yl)sulfonyl)-2-((6-((S)-2-hydroxypropoxy)-1H-pyrrolo[2,3-b]pyridin-5-yl)oxy)-4-(2-((R or S)-2-(2-isopropylphenyl)pyrrolidin-1-yl)-7-azaspiro[3.5]nonan-7-yl)benzamide]: the IC50 turned out to be 1 nM. The same measure, in the same setting: then `CC(C)c1ccccc1[C@@H]1CCCN1C1CC2(CCN(c3ccc(C(=O)NS(=O)(=O)c4cc5c(c([N+](=O)[O-])c4)N[C@@H]([C@H]4CC[C@](C)(O)CC4)CO5)c(Oc4cc5cc[nH]c5nc4O[C@H]4CCOC4)c3)CC2)C1` (single isomer, unassigned) [Example D-74, N-(((S)-3-((1r,4S)-4-hydroxy-4-methylcyclohexyl)-5-nitro-3,4-dihydro-2H-benzo[b][1,4]oxazin-7-yl)sulfonyl)-4-(2-((R or S)-2-(2-isopropylphenyl)pyrrolidin-1-yl)-7-azaspiro[3.5]nonan-7-yl)-2-((6-(((S)-tetrahydrofuran-3-yl)oxy)-1H-pyrrolo[2,3-b]pyridin-5-yl)oxy)benzamide], with 1 nM.

Still in this assay, the particulars now being: Homo sapiens, Toledo, read-out: Toledo IC50 (nM).
Regarding `CC(C)c1ccccc1[C@@H]1COCCN1C1CC2(CCN(c3ccc(C(=O)NS(=O)(=O)c4cc5c(c([N+](=O)[O-])c4)N[C@@H]([C@H]4CC[C@](C)(O)CC4)CO5)c(Oc4cnc5[nH]cc(Cl)c5c4)c3)CC2)C1` (single isomer, unassigned) [Example D-2, 2-((3-chloro-1H-pyrrolo[2,3-b]pyridin-5-yl)oxy)-N-(((S)-3-((1r,4S)-4-hydroxy-4-methylcyclohexyl)-5-nitro-3,4-dihydro-2H-benzo[b] [1,4]oxazin-7-yl)sulfonyl)-4-(2-((R or S)-3-(2-isopropylphenyl)morpholino)-7-azaspiro[3.5]nonan-7-yl) benzamide], the IC50 came to 1 nM.

Still in this assay, the particulars now being: Toledo cells, MTS, read-out: Toledo IC50.
For `CC(C)c1ccccc1C1COCCN1C1CC2(CCN(c3ccc(C(=O)NS(=O)(=O)c4cc5c(c([N+](=O)[O-])c4)S[C@@H](C4CCC(C)(O)CC4)CO5)c(Oc4cnc5[nH]cc(F)c5c4)c3)CC2)C1` (single isomer, unassigned) [Example E-6, 2-((3-fluoro-1H-pyrrolo[2,3-b]pyridin-5-yl)oxy)-N-(((S)-3-((1r,4S)-4-hydroxy-4-methylcyclohexyl)-5-nitro-2,3-dihydrobenzo [b][1,4]oxathiin-7-yl)sulfonyl)-4-(2-((R or S)-3-(2-isopropylphenyl)morpholino)-7-azaspiro[3.5]nonan-7-yl)benzamide], the 50% inhibitory concentration (IC50) is 1 nM.
